Experimental data as given in ChEMBL document CHEMBL1152992, “RmtC 16S rRNA methyltransferase in Australia” (2008).
In brackets after ≈: the same amount, converted by molar mass.

Test system: Proteus mirabilis
Assay: Antimicrobial activity against Proteus mirabilis JIE273 expressing 16S rRNA methyltransferase RmtC
Type: functional

**Q.** For `CC1(C)S[C@@H]2[C@H](NC(=O)[C@H](N)c3ccccc3)C(=O)N2[C@H]1C(=O)O` [AMPICILLIN], which MIC is on record?
**A.** > 16 µg/mL

**Q.** For `C[C@H]1[C@H](NC(=O)/C(=N\OC(C)(C)C(=O)O)c2csc(N)n2)C(=O)N1S(=O)(=O)O` [AZTREONAM], which MIC is on record?
**A.** > 16 µg/mL

**Q.** For `CO/N=C(\C(=O)N[C@@H]1C(=O)N2C(C(=O)O)=C(COC(C)=O)CS[C@H]12)c1csc(N)n1` [CEFOTAXIME], which MIC is on record?
**A.** > 32 µg/mL

**Q.** For `CO[C@@]1(NC(=O)Cc2cccs2)C(=O)N2C(C(=O)O)=C(COC(N)=O)CS[C@@H]21` [CEFOXITIN], which MIC is on record?
**A.** ≤ 4 µg/mL

**Q.** `CC(C)(O/N=C(\C(=O)N[C@@H]1C(=O)N2C(C(=O)[O-])=C(C[n+]3ccccc3)CS[C@H]12)c1csc(N)n1)C(=O)O` [CEFTAZIDIME] was tested. Which MIC did it give?
**A.** > 16 µg/mL

**Q.** How did the MIC turn out when `CO/N=C(\C(=O)N[C@@H]1C(=O)N2C(C(=O)O)=C(CSc3nc(=O)c(O)nn3C)CS[C@H]12)c1csc(N)n1` [CEFTRIAXONE] was run?
**A.** > 32 µg/mL

**Q.** Which MIC does the source give for `CO/N=C(\C(=O)N[C@@H]1C(=O)N2C(C(=O)O)=C(COC(N)=O)CS[C@H]12)c1ccco1` [CEFUROXIME] here?
**A.** > 16 µg/mL

**Q.** `CC(=O)OCC1=C(C(=O)O)N2C(=O)[C@@H](NC(=O)Cc3cccs3)[C@H]2SC1` [CEPHALOTHIN] was tested. Which MIC did it give?
**A.** > 16 µg/mL

**Q.** For `O=C(O)c1cn(C2CC2)c2cc(N3CCNCC3)c(F)cc2c1=O` [CIPROFLOXACIN], which MIC is on record?
**A.** > 2 µg/mL

**Q.** For `C[C@@H](O)[C@H]1C(=O)N2C(C(=O)O)=C(SCCNC=N)C[C@H]12` [IMIPENEM ANHYDROUS], which MIC is on record?
**A.** ≤ 2 µg/mL

**Q.** `C[C@H]1COc2c(N3CCN(C)CC3)c(F)cc3c(=O)c(C(=O)O)cn1c23.C[C@H]1COc2c(N3CCN(C)CC3)c(F)cc3c(=O)c(C(=O)O)cn1c23.O` [LEVOFLOXACIN] was tested. Which MIC did it give?
**A.** > 4 µg/mL

**Q.** Which MIC does the source give for `CCn1cc(C(=O)O)c(=O)c2ccc(C)nc21` [NALIDIXIC ACID] here?
**A.** > 32 µg/mL

**Q.** How did the MIC turn out when `CC1(C)S[C@@H]2[C@H](NC(=O)[C@H](C(=O)O)c3ccsc3)C(=O)N2[C@H]1C(=O)O` [TICARCILLIN] was run?
**A.** 32 µg/mL (≈ 83.2 µM)
